Consider four molecules from patent publication US20230056593A1, “ARGININE ASPARTATE-CONTAINING COMPOSITION FOR SUPPRESSING OLD PERSON SMELL” (HUMEDIX CO., LTD., priority 2020, published 2023).

One assay has as its system mushroom tyrosinase. In words: Whitening effect: mushroom tyrosinase activity (absorbance at 490 nm). The assay is classed as biochemical. Conditions: for Tyrosinase activity (% of control): 37° C. for 10 minutes, pH 6.8. The method, then:
After adding 200 μL of 0.1M phosphate buffer (pH 6.8) to the Eppen tube, 20 μL of each sample solution diluted at each concentration was added. Then, 20 μL of mushroom tyrosinase (2,000 units/μL) and 200 μL of 0.3% tyrosine were added in order, and then reacted at 37° C. for 10 minutes. After 200 μL of this solution was transferred to a 96-well plate, absorbance was measured at 490 nm using an ELISA reader. 100 ppm arbutin was used as a positive control.

A further assay relates to Procollagen. Put plainly: Collagen synthesis ability in human skin fibroblasts (Type I Procollagen C-Peptide EIA kit). It counts as cell-based. On the procedure: Human skin fibroblasts were cultured at a concentration of 1×10^4/well. The cells were treated with each sample, and the amount of synthesized collagen was measured to evaluate the collagen synthesis ability. The cells were treated with adenosine at a concentration of 50 ppm as a positive control and arginine aspartate at a concentration of 10, 20 and 40 ppm. Collagen quantification was performed using a Type I Procollagen C-Peptide EIA kit (Takara, Japan). A group in which the cells were not treated with sample was used as a control group (CON).

For another assay, the system named is MMP-1. In words: MMP-1 expression level in human skin fibroblasts (PCR). It counts as cell-based. The method, then: Human skin fibroblasts were cultured at a concentration of 1×10^4/well. The cells were treated with arginine aspartate for each concentration, and the MMP-1 expression level was measured using a PCR device to evaluate the ability of arginine aspartate to inhibit MMP-1. A group in which the cells were not treated with the sample was used as a control group (CON), and a group in which the cells were treated with 50 ppm of adenosine was used as a positive control group.

A further assay concerns TNF-α. Put plainly: Anti-inflammatory effect: TNF-α expression in UVB-stimulated HaCaT cells (RT-PCR). It counts as cell-based. The note with it: UVB stimulation. The method, then: HaCaT cells were seeded in a 12-well plate by 1×10^5 cells/well, and after 24 hours, they were replaced with a basal medium and starvated for 6 hours. After that, the medium was replaced with the basal medium containing the sample and the cells were incubated for 24 hours. After removal of the medium, UVB stimulation was applied, and the basal medium was added and the cells were cultured for 24 hours. The medium was completely removed and the cells were washed twice with PBS. The cells were disrupted using TRIsure to recover RNA, and then RT-PCR was performed to amplify TNF-α. Electrophoresis was performed on an agarose gel and the expression rate was measured using the Gel Documentation system. 200 μM dexamethasone was used as a positive control.

The nature of assay [1]: Removal of 2-nonenal by arginine aspartate (HPLC over time). The note with it: 0.05 wt % 2-nonenal treated with 2.5 wt % arginine aspartate, room temperature, after 20 hours. The method, then: The ability of the arginine aspartate of Formula (I) according to the present invention to remove 2-nonenal was evaluated.
2-Nonenal was dissolved at a concentration of 0.1 wt % (1000 ppm) in 50 wt % ethanol aqueous solution containing 0.5 wt % Tween 80. Arginine aspartate was dissolved at a concentration of 5 wt % (50000 ppm) in a 50 wt % ethanol aqueous solution containing 0.5 wt % Tween 80.
The two solutions were mixed in a 1:1 ratio by weight to make a mixed solution. The mixed solution was left at room temperature and the change in the amount of 2-nonenal was analyzed by HPLC over time. That is, the change in the amount of 2-nonenal over time was analyzed by treating 0.05 wt % 2-nonenal with arginine aspartate at a concentration of 2.5 wt %.
Further, the 2-nonenal solution prepared above was diluted two-fold with a 50 wt % ethanol aqueous solution containing 0.5 wt % Tween 80 and the diluted solution was left at room temperature to analyze the change in the amount of 2-nonenal over time by HPLC. That is, the change in the amount of 2-nonenal over time was analyzed in a condition of 0.05 wt % of 2-nonenal untreated with arginine aspartate.

In the case of `OC[C@H]1O[C@@H](Oc2ccc(O)cc2)[C@H](O)[C@@H](O)[C@@H]1O` [Arbutin, arbutin, reference compound], the “Tyrosinase activity (% of control)” value was 93.6 % of control with mushroom tyrosinase (10 ppm) and 76.7 % of control in the assay on mushroom tyrosinase (100 ppm).

With `Nc1ncnc2c1ncn2[C@@H]1O[C@H](CO)[C@@H](O)[C@H]1O` [Adenosine, adenosine, reference compound], the “Type I procollagen C-peptide level (% of control)” value in the assay with Procollagen (50 ppm) is 142.2 % of control. Besides, the “MMP-1 gene expression level (% of control)” value in the assay with MMP-1 (50 ppm) was 73.9 % of control.

arginine aspartate: the “collagen synthesis compared to the control group (CON)” value in the assay on Procollagen (10, 20 and 40 ppm) is listed as “increase in collagen synthesis”. The “Type I procollagen C-peptide level (% of control)” value in the assay with Procollagen (10 ppm) is on record as 123.6 % of control; with Procollagen (20 ppm) it was 133.0 % of control; with Procollagen (40 ppm), 136.8 % of control. Also, the figures for the “Tyrosinase activity (% of control)” value in the assay on mushroom tyrosinase (10 ppm) and in the assay with mushroom tyrosinase (100 ppm) were 72.5 % of control and 71.7 % of control, respectively. Further, the “inhibition in tyrosinase activity” value with mushroom tyrosinase (100 ppm) is on record as 28.3%. Moreover, the “TNF-α gene expression level (% of control)” value in the assay on TNF-α (10 ppm) was 76.0 % of control; in the assay with TNF-α (20 ppm), 72.9 % of control; in the assay with TNF-α (40 ppm), 72.6 % of control. In the assay with TNF-α (40 ppm), the “decrease in TNF-α expression level” value was determined as 37.4%. For the same molecule, the “MMP-1 gene expression level (% of control)” value is 86.7 % of control in the assay on MMP-1 (10 ppm), 82.2 % of control in the assay with MMP-1 (20 ppm) and 76.6 % of control with MMP-1 (40 ppm). Besides, in the assay with MMP-1 (40 ppm), the “inhibitory effect on MMP-1” value was determined as 23.4%. In addition, the “amount of 2-nonenal decreased” value in assay [1] turned out to be 74%. For the same molecule, the “amount of 2-nonenal left compared to the initial 100% by weight” value in assay [1] is on record as 26 % by weight.

As to `C[C@@H]1C[C@H]2[C@@H]3CCC4=CC(=O)C=C[C@]4(C)[C@@]3(F)[C@@H](O)C[C@]2(C)[C@@]1(O)C(=O)CO` [Dexamethasone, dexamethasone, reference compound], the “TNF-α gene expression level (% of control)” value in the assay on TNF-α (50 ppm (table)) was 66.9 % of control.
